According to patent US10196393B2, “JAK inhibitors containing a 4-membered heterocyclic amide” (THERAVANCE BIOPHARMA R&D IP, LLC, priority 2017, dated 2019):

System: IL-4 stimulated STAT6 phosphorylation in CD3+ T cells
Assay: Cellular JAK potency assay: inhibition of IL-4 stimulated pSTAT6 in CD3+ T cells
Format: cell-based
Details: T-cell; CD3+ T cells in human PBMCs; read-out: pIC50, inhibition of IL-4 stimulated pSTAT6 (converted)
Protocol: Assay 10: Cellular JAK Potency Assay: Inhibition of IL-4 Stimulated pSTAT6 in CD3+ T Cells
The potency of the test compound for inhibition of interleukin-4 (IL-4) stimulated STAT6 phosphorylation was measured in CD3-positive (CD3+) T cells in human peripheral blood mononuclear cells (PBMCs) isolated from human whole blood (Stanford Blood Center) using flow cytometry. Because IL-4 signals through JAK, this assay provides a measure of JAK cellular potency.
CD3+ T cells were identified using a […] (PE) conjugated anti-CD3 antibody (Clone UCHT1, BD Biosciences), while an Alexa Fluor 647 conjugated anti-pSTAT6 antibody (pY641, Clone 18/P, BD Biosciences) was used to detect STAT6 phosphorylation.
Human peripheral blood mononuclear cells (PBMC) were isolated from human whole blood of healthy donors as in Assays 8 and 9. […] After incubation, cells were washed twice in FACS buffer before being analyzed using a LSRII flow cytometer (BD Biosciences).
To determine the inhibitory potency of the test compound in response to IL-4, the median fluorescent intensity (MFI) of pSTAT6 was measured in CD3+ T cells. IC50 values were determined from analysis of the inhibition curves of MFI vs compound concentration. Data are expressed as pIC50 (negative decadic logarithm IC50).

`CCc1cc(O)c(F)cc1-c1ccc2c(-c3nc4c([nH]3)CN(C(C)C)[C@H](C(=O)N3CC(N(C)C)C3)C4)n[nH]c2c1` [Example 2, (S)-(3-(dimethylamino)azetidin-1-yl)(2-(6-(2-ethyl-5-fluoro-4-hydroxyphenyl)-1H-indazol-3-yl)-5-isopropyl-4,5,6,7-tetrahydro-3H-imidazo[4,5-c]pyridin-6-yl)methanone] gave an IC50 of 12.6 nM.
